Measured values taken from patent US7371555B2, “Polypeptides having α-H-α-amino acid amide racemase activity and nucleic acids encoding the same” (DSM IP Assets B.V., priority 2002, dated 2008).

Assays:
[1] = system: E. coli DH10B/pOA(1)PLV49B10 cells containing the α-H-α-amino acid amide racemase gene from Ochrobactrum anthropi IA; assay: Racemase activity test with DL-leucine amide and whole E. coli cells (Example 6); type: cell-based; details: Strain A
Protocol: To determine the activity of E. coli/pOA(1)PLV49B10 and the E. coli control, the above-mentioned cell pellets were thawed and resuspended to a total volume of 1 ml with 50 mM HEPES-NaOH buffer, pH 7.7. Then, reaction mixtures of 10 ml each were prepared containing 50 mM HEPES-NaOH buffer (pH 7.7), 10 μM pyridoxal-5-phosphate (PLP), 2.5 wt % of D-leucine amide, if applicable 20 mM of EDTA to suppress the E. coli amidase activity, and 0.5 ml of the E. coli/pOA(1)PLV49B10 and E. coli DH10B/pZErO-GFPuv-wrong-orientation cell suspensions or water (for chemical blanks). Reactions were started by the addition of the cells. Reaction mixtures were incubated at 30° C. and 175 rpm. Directly after addition of the cells (t=0 hours) and after 27 and 43 hours samples were taken in which the reaction was stopped by removal of the cells via centrifugation followed by 0.22 μM filtration. Finally, the filtered samples were stored at −20° C. until analysis by chiral HPLC as described below: • column: Sumichiral OA5000 from Sumika (150×4.6 mm I.D., 5μ)+guard column • eluent: 85 v/v % 2 mM CuSO4+15 v/v % methanol • flow: 1.0 ml/min. • column temp.: 40° C. • inj. volume: 5 μl • detection: fluorescence detection after post-column reaction with o-phthalaldehyde and 2-mercaptoethanol (wavelength ex=338 nm and em>420 nm)
The E. coli DH10B/pOA(1)PLV49B10 and E. coli DH10B/pZErO-GFPuv-wrong-orientation cell suspensions from Example 5 (Preparation of the cells) were used. To determine their activity towards racemic DL-leucine amide, identical reaction mixtures were prepared as in Example 5, except that 2.5 wt % of DL-leucine amide was used, EDTA was omitted in all reactions, and the reactions were started with […] of the cell suspensions. Samples were taken directly after the start of the reactions (t=0 hours) and after 8 and 24 hours.

[2] = system: CFE from E. coli DH10B/pOa(1)PLV49B10 containing the α-H-α-amino acid amide racemase from O. anthropi IA; assay: Racemase activity test with DL-2-aminobutyric acid amide and CFE from E. coli DH10B/pOa(1)PLV49B10 (Example 10); type: biochemical, Ochrobactrum anthropi IA; details: Strain A; incubation time 21.5 h; conversion to the L-acid
Protocol: Also in this case, E. coli TOP10/pBAD/Myc-HisC was treated in exactly the same way to serve as negative control.
To determine the activity of the CFE from E. coli DH10B/pOa(1)PLV49B10 and E. coli TOP10/pBAD/Myc-HisC, reaction mixtures of 10 ml each were prepared containing 50 mM HEPES-NaOH, pH 8.0, 20 μM pyridoxal-5-phosphate, 0.4 mg/ml BSA, 1 mM dithiothreitol, and 75 mM of DL-2-aminobutyric acid amide. Reactions were started by the addition of 1 ml of the thawed CFE of E. coli DH10B/pOa(1)PLV49B10 or E. coli TOP10/pBAD/Myc-HisC (blank) and were incubated at 37° C. for 21.5 h. At regular time intervals samples of 1 ml were taken and transferred to vials containing 1 ml of MeOH to stop the reaction. Analysis of these samples to determine the concentrations L- and D-2-aminobutyric acid and L- and D-2-aminobutyric acid amide was done by HPLC according to the following protocol. • column: Sumichiral OA5000 from Sumika (150×4.6 mm I.D., 5μ)+guard column • eluent: 4 mM CuSO4 in water • flow: 1 ml/min. • column temp.: 10° C. • inj. volume: 6 μl • detection: fluorescence detection after post-column reaction with o-phthalaldehyde and 2-mercaptoethanol in 0.4 M borate buffer with addition of EDTA (wavelength ex=338 nm and em>420 nm)

[3] = system: lyophilized O. anthropi IA cells; assay: α-H-α-amino acid amide racemase activity of lyophilized O. anthropi IA cells; type: biochemical, Ochrobactrum anthropi IA; details: control experiment
Protocol: O. anthropi IA cells were cultivated in Medium A containing DL-α-amino-ε-caprolactam (2 g/l) as sole nitrogen source. After incubation at 28° C. and 200 rpm for three days (OD620 nm=4.7), cells were harvested by centrifugation, washed in 20 mM HEPES-NaOH buffer of pH 7.7 and lyophilized.
The assay mixture consisted of 10 mM HEPES-NaOH buffer (pH 7.7) containing toluene (2,5 v/v %), pyridoxal-5-phosphate (20 μM), D- or L-leucine amide (2.5 m %) and in some cases EDTA (20 mM). Per assay 150 mg of lyophilized cells were used. Chemical blanks (with the assay mixture without the O. anthropi IA cells) were used as a negative control. All reaction mixtures (including the blanks) were incubated for approximately 72 hours at 40° C. before the reaction was stopped by the addition of 9 volumes of 1 M H3PO4. Finally, the reaction mixtures were analyzed by HPLC to determine the concentrations of D- and L-leucine amide and of D- and L-leucine. o-Phthaldehyde in combination with D-3-mercapto-2-methylpropionic acid was used in this HPLC method as a chiral reagent for the enantioseparation of these amino compounds (Duchateau, et al., J. Chromatogr. (1992) 623:237-245).
In a number of reactions EDTA was added to inhibit L- and/or D-specific amidase(s) present in the O. anthropi IA cells.
Without EDTA, amidases convert the substrate and/or product α-H-α-amino acid amides into α-H-α-amino acids thereby preventing direct detection of the other α-H-α-amino acid amide enantiomer as racemization product. […] Formation of L-leucine from D-leucine amide could not be detected in the chemical blank.

CC(C)CC(N)C(N)=O (racemic) [DL-leucine amide]
D-leucine ([1]; incubation time 0 h): 0.001 wt % | D-leucine amide ([1]; incubation time 0 h): 1.19 wt % | L-leucine ([1]; incubation time 0 h): 0.003 wt % | L-leucine amide ([1]; incubation time 0 h): 1.25 wt % | D-leucine ([1]; incubation time 8 h): 0.004 wt % | D-leucine amide ([1]; incubation time 8 h): 1.24 wt % | L-leucine ([1]; incubation time 8 h): 1.45 wt % | L-leucine amide ([1]; incubation time 8 h): 0.33 wt % | D-leucine ([1]; incubation time 24 h): 0.028 wt % | D-leucine amide ([1]; incubation time 24 h): 0.43 wt % | L-leucine ([1]; incubation time 24 h): 2.25 wt % | L-leucine amide ([1]; incubation time 24 h): 0.14 wt %

CC[C@@H](N)C(N)=O [D-aminobutyric acid amide]
Conversion [2]: 85.4%

CC(C)C[C@H](N)C(=O)O [leucine]
racemization of leucine [3]: did not racemize
